Measurements as given in PubChem BioAssay AID1963849 (Molecular Pharmacology Branch, DTP, NCI, 2024).
Values joined by “and” are separate entries in the source; they are usually repeats but may differ in a detail not shown here. Equal values may be shown once.

System: 299254-011-R-J1-PDC complex spheroid viability
Test: Anticancer human tumor 299254-011-R-J1-PDC patient-derived melanoma cell line growth inhibition [POLQ]
Conditions: for viability, T/C: stronger effect = lower value; active = viability on the fitted dose curve at most 10% of control; inactive = the rest
Description: Multicellular complex tumor spheroid response to Polymerase (POL) inhibitors (novobiocin, ART-558, RP6685) in combination with a variety of drugs and investigational agents in selected tumor cell lines
The POL inhibitors (novobiocin, ART-558, and RP6685) were evaluated both individually and in combination with standard of care and investigational anticancer small molecules within a complex spheroid model of solid tumors. . Complex spheroids include a stromal component modeled by human endothelial cells (HUVEC) and fibroblasts modeled by human mesenchymal stem cells (MSCs). The concentration ranges selected for each drug and investigational agent were based upon clinically achievable concentrations if the clinical Cmax of the agent was known.
Compounds. The drugs and investigational agents: novobiocin (NSC847541), ART-558 (NSC835418), RP-6685 (NSC848927), peposertib (NSC802822), ceralasertib (NSC780249), elimusertib (NSC800525), camonsertib (NSC841442), AZD-1390 (NSC803789), olaparib (NSC753686), talazoparib (NSC767125), rucaparib (NSC756644), sotorasib (NSC818433), MRTX-1133 (NSC836407), SN-38 (NSC673596), topotecan (NSC609699), epotoside (NSC141540), doxorubicin (NSC123127), gemcitabine (NSC613327), 5-fluorouracil (NSC19893), paclitaxel (NSC125973), vemurafenib (NSC761431), MSA-2 (NSC828583), SN-011 (NSC837082), adavosertib (NSC754352), prexasertib (NSC758257), carboplatin (NSC241240) and oxaliplatin (NSC266046), were obtained from the National Cancer Institute (NCI) Developmental Therapeutics Program Chemical Repository (21). The FDA-approved anticancer drug set is available from the Developmental Therapeutics Program at https://dtp.cancer.gov/organization/dscb/obtaining/. […] The stock solutions were prepared in dimethyl sulfoxide (DMSO, Sigma-Aldrich, St. Louis, MO, cat. D2650), except for the platinum compounds which were prepared in saline (Quality Biological, Gaithersburg, MD, cat. 114-055-101), at 800-fold the tested concentration and stored at -70 degrees C prior to their use. All drugs and investigational agents were tested over a range starting from a high concentration at or near the clinical Cmax and decreasing in half-log increments. If the clinical Cmax for an agent had not been determined, the highest concentration tested was 10 microM, except for SN-38, which was tested at a high concentration of 1 microM.
Cell Culture. All cells were maintained in an incubator at 37 degrees C and 5% CO2 with 95% humidity. The PDC lines were cultured according to standard operating procedures established by the NCI PDMR (https://pdmr.cancer.gov). Table 3 of the manuscript, lists the cell lines along with the number of the three cell types plated to form the mct-spheroids and media for tumor cell growth. After thawing, all PDC lines, except 997537-175-T-J1-PDC and 415267-285-R-J2-PDC, were cultured in Matrigel-coated flasks prepared with a working solution of 1X Ham's F-12 nutrient mix, without supplementation (Thermo Fisher Scientific, cat. 11765054), 100 U/mL penicillin-streptomycin (Thermo Fisher Scientific, cat. 15140122), and 2.5% Matrigel (Corning Inc., Corning, NY, cat. 354248) for the first three passages. The two PDC lines 997537-175-T-J1-PDC and 415267-285-R-J2-PDC were cultured on uncoated flasks. The 857933-349-R-J2-PDC line was cultured in 6C/Colon 1B media containing advanced DMEM/F-12 (Thermo Fisher Scientific, cat. 12634028), 10 mM HEPES (Thermo Fisher Scientific, cat. 15630080), 1X GlutaMAX supplement (Thermo Fisher Scientific, cat. 35050061), 0.1 mg/mL primocin (InvivoGen, San Diego, CA, cat. ant-pm-2), 10% defined fetal bovine serum, heat inactivated (HyClone Laboratories Inc., Logan, UT, cat. SH30070.03HI), 50% L-WRN conditioned media (ATCC, cat. CRL-3276), 1.25 mM N-Acetyl-L-cysteine (Sigma-Aldrich, cat. A9165), 10 mM nicotinamide (Sigma-Aldrich, cat. N0636), 1X B-27 supplement (Thermo Fisher Scientific, cat. 17504044), 1X N-2 supplement (Thermo Fisher Scientific, cat. […]

[1] = curve of first compound, second compound 0.0316 µM
[2] = curve of first compound, second compound 0.1 µM
[3] = curve of first compound, second compound 0.316 µM
[4] = curve of first compound, second compound 1 µM
[5] = curve of first compound, second compound 3.16 µM
[6] = curve of first compound, second compound 10 µM
[7] = second compound 0.0316 µM, first compound 0.0316 µM
[8] = second compound 0.0316 µM, first compound 0.1 µM
[9] = second compound 0.0316 µM, first compound 0.316 µM
[10] = second compound 0.0316 µM, first compound 1 µM
[11] = second compound 0.0316 µM, first compound 3.16 µM
[12] = second compound 0.0316 µM, first compound 10 µM
[13] = second compound 0.1 µM, first compound 0.0316 µM
[14] = second compound 0.1 µM, first compound 0.1 µM
[15] = second compound 0.1 µM, first compound 0.316 µM
[16] = second compound 0.1 µM, first compound 1 µM
[17] = second compound 0.1 µM, first compound 3.16 µM
[18] = second compound 0.1 µM, first compound 10 µM
[19] = second compound 0.316 µM, first compound 0.0316 µM
[20] = second compound 0.316 µM, first compound 0.1 µM
[21] = second compound 0.316 µM, first compound 0.316 µM
[22] = second compound 0.316 µM, first compound 1 µM
[23] = second compound 0.316 µM, first compound 3.16 µM
[24] = second compound 0.316 µM, first compound 10 µM
[25] = second compound 1 µM, first compound 0.0316 µM
[26] = second compound 1 µM, first compound 0.1 µM
[27] = second compound 1 µM, first compound 0.316 µM
[28] = second compound 1 µM, first compound 1 µM
[29] = second compound 1 µM, first compound 3.16 µM
[30] = second compound 1 µM, first compound 10 µM
[31] = second compound 3.16 µM, first compound 0.0316 µM
[32] = second compound 3.16 µM, first compound 0.1 µM
[33] = second compound 3.16 µM, first compound 0.316 µM
[34] = second compound 3.16 µM, first compound 1 µM
[35] = second compound 3.16 µM, first compound 3.16 µM
[36] = second compound 3.16 µM, first compound 10 µM
[37] = second compound 10 µM, first compound 0.0316 µM
[38] = second compound 10 µM, first compound 0.1 µM
[39] = second compound 10 µM, first compound 0.316 µM
[40] = second compound 10 µM, first compound 1 µM
[41] = second compound 10 µM, first compound 3.16 µM
[42] = second compound 10 µM, first compound 10 µM
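Note: spheroids exposed to drugs for one week before measurement.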
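Throughout, for viability, T/C: percent viability relative to DMSO vehicle control taken as 100%.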

COc1ccc([C@@H](O)c2cc(-c3ncnc4cc(N5CCOCC5)ccc34)c(F)cc2Cl)nn1 + COC1C(OC(N)=O)C(O)C(Oc2ccc3c(O)c(NC(=O)c4ccc(O)c(CC=C(C)C)c4)c(=O)oc3c2C)OC1(C)C
8.74 µM: IC50 [6]
8.91 µM: IC50 [2]
9.66 µM: IC50 [1]
inactive: viability, T/C [7] 103% | viability, T/C [8] 90.6% | viability, T/C [9] 97.7% | viability, T/C [10] 109% | viability, T/C [11] 102% | viability, T/C [12] 48.3% | viability, T/C [13] 115% | viability, T/C [14] 109% | viability, T/C [15] 114% | viability, T/C [16] 99% | viability, T/C [17] 89.8% | viability, T/C [18] 45.4% | viability, T/C [19] 116% | viability, T/C [20] 125% | viability, T/C [21] 118% | viability, T/C [22] 106% | viability, T/C [23] 86.7% | viability, T/C [24] 45.4% | viability, T/C [25] 118% | viability, T/C [26] 107% | viability, T/C [27] 101% | viability, T/C [28] 110% | viability, T/C [29] 90.6% | viability, T/C [30] 54.5% | viability, T/C [31] 128% | viability, T/C [32] 96.3% | viability, T/C [33] 109% | viability, T/C [34] 103% | viability, T/C [35] 85.1% | viability, T/C [36] 51.1% | viability, T/C [37] 107% | viability, T/C [38] 107% | viability, T/C [39] 105% | viability, T/C [40] 87.1% | viability, T/C [41] 92.9% | viability, T/C [42] 44%
> 10 µM: IC50 [4] | IC50 [5]
8.8 µM: IC50 [3]

COc1cccc2c1C(=O)c1c(O)c3c(c(O)c1C2=O)CC(O)(C(=O)CO)CC3OC1CC(N)C(O)C(C)O1 (stereo unspecified)
inactive: viability, T/C (compound 0.0316 µM) 83.7% and 89.6% and 90% | viability, T/C (compound 0.1 µM) 80.1% and 91.1% and 93.3% | viability, T/C (compound 0.316 µM) 69.1% and 73.4% and 55.2% | viability, T/C (compound 1 µM) 59% and 60.7% and 46% | viability, T/C (compound 3.16 µM) 9.86% and 15.5% and 12%
active: viability, T/C (compound 10 µM) 0.74% and 1.67% and 3.35%
1.19 µM and 1.2 µM and 0.612 µM: IC50 (curve of compound)

CC(C)n1c(=O)n(C)c2cnc3cc(F)c(-c4ccc(OCCCN5CCCCC5)nc4)cc3c21 + Cc1cccc(N(C)C(=O)C2C(O)CCN2c2nc(C)cc(C(F)(F)F)c2C#N)c1
inactive: viability, T/C [7] 98.6% | viability, T/C [8] 102% | viability, T/C [9] 84.6% | viability, T/C [10] 90.1% | viability, T/C [11] 102% | viability, T/C [12] 68.2% | viability, T/C [13] 96.2% | viability, T/C [14] 92.9% | viability, T/C [15] 90.4% | viability, T/C [16] 90.1% | viability, T/C [17] 97% | viability, T/C [18] 81.2% | viability, T/C [19] 93.9% | viability, T/C [20] 98.8% | viability, T/C [21] 89.2% | viability, T/C [22] 88.9% | viability, T/C [23] 94.1% | viability, T/C [24] 76.3% | viability, T/C [25] 92.5% | viability, T/C [26] 96.5% | viability, T/C [27] 89.1% | viability, T/C [28] 98.8% | viability, T/C [29] 93.5% | viability, T/C [30] 67.6% | viability, T/C [31] 113% | viability, T/C [32] 119% | viability, T/C [33] 90.3% | viability, T/C [34] 95.3% | viability, T/C [35] 90.4% | viability, T/C [36] 64.1% | viability, T/C [37] 87.9% | viability, T/C [38] 97% | viability, T/C [39] 106% | viability, T/C [40] 107% | viability, T/C [41] 79.3% | viability, T/C [42] 71.1%
> 10 µM: IC50 [1] | IC50 [2] | IC50 [3] | IC50 [4] | IC50 [5] | IC50 [6]
